{"source": "patent US20220144847A1", "about": "“HETEROCYCLIC COMPOUND, PHARMACEUTICAL COMPOSITION COMPRISING SAME, PREPARATION METHOD THEREFOR, AND USE THEREOF” (Sichuan Kelun-Biotech Biopharmaceutical Co., Ltd., priority 2019, published 2022)", "key": {"RET-WT": {"target": "RET-WT (Homo sapiens, UniProt P07949)", "sequence (P07949 29-1114)": "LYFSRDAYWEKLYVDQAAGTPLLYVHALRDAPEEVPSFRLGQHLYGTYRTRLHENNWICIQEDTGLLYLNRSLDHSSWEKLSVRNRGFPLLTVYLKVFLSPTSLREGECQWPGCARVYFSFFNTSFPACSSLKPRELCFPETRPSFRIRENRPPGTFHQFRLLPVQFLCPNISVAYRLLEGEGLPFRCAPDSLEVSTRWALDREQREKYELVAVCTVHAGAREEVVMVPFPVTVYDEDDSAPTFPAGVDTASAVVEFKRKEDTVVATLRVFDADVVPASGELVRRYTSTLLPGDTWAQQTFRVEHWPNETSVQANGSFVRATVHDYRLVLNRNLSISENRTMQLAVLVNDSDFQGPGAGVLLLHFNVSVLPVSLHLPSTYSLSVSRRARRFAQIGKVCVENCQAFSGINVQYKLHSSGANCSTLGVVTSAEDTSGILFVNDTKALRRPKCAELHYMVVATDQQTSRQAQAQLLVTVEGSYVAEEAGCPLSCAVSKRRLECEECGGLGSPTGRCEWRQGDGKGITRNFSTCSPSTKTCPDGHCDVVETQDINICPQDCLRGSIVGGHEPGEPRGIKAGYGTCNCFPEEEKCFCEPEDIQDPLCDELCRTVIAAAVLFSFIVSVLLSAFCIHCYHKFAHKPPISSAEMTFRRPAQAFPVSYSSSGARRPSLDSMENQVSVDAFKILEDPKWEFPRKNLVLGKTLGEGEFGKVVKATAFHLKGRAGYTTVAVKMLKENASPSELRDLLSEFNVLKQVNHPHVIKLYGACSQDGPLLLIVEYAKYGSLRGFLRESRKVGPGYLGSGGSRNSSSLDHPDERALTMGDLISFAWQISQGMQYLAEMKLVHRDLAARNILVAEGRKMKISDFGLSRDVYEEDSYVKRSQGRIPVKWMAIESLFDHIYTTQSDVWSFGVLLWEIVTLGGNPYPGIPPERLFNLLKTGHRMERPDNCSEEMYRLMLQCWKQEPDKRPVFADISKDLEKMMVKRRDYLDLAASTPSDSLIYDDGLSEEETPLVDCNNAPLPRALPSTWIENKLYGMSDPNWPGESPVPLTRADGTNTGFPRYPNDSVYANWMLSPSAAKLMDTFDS", "assay": "RET inhibition experiment (HTRF KinEASE-TK kit), wild-type RET enzyme", "format": "biochemical", "conditions": "read-out: The IC50 (nM) for inhibiting RET-WT", "protocol": "Experimental method: […] After incubation at room temperature for 40 min, TK antibody-cryptate and streptavidin-XL665 were added, and the test was performed after incubation at room temperature for 45 min. With the solvent group (DMSO) as the negative control and the buffer group (without RET enzyme) as the blank control, the relative inhibitory activity percentages (i.e., inhibition rates) of different concentrations of the compounds were computed as per the following formula: […] The relative inhibitory activity percentages of different concentrations of the compounds were plotted with respect to the compound concentrations, and the curve was fitted according to a four-parameter model to compute the IC50 value as per the following formula: y=min+(max-min)/(1+(x/IC50)^(-Hillslope)) where y is the relative inhibitory activity percentage, max is the maximum value of the fitted curve, min is the minimum value of the fitted curve, x is the logarithmic concentration of the compound, and Hillslope is the slope of the curve."}, "VEGFR2": {"target": "VEGFR2 (Homo sapiens, UniProt P35968)", "sequence (P35968 20-1356, species assumed)": "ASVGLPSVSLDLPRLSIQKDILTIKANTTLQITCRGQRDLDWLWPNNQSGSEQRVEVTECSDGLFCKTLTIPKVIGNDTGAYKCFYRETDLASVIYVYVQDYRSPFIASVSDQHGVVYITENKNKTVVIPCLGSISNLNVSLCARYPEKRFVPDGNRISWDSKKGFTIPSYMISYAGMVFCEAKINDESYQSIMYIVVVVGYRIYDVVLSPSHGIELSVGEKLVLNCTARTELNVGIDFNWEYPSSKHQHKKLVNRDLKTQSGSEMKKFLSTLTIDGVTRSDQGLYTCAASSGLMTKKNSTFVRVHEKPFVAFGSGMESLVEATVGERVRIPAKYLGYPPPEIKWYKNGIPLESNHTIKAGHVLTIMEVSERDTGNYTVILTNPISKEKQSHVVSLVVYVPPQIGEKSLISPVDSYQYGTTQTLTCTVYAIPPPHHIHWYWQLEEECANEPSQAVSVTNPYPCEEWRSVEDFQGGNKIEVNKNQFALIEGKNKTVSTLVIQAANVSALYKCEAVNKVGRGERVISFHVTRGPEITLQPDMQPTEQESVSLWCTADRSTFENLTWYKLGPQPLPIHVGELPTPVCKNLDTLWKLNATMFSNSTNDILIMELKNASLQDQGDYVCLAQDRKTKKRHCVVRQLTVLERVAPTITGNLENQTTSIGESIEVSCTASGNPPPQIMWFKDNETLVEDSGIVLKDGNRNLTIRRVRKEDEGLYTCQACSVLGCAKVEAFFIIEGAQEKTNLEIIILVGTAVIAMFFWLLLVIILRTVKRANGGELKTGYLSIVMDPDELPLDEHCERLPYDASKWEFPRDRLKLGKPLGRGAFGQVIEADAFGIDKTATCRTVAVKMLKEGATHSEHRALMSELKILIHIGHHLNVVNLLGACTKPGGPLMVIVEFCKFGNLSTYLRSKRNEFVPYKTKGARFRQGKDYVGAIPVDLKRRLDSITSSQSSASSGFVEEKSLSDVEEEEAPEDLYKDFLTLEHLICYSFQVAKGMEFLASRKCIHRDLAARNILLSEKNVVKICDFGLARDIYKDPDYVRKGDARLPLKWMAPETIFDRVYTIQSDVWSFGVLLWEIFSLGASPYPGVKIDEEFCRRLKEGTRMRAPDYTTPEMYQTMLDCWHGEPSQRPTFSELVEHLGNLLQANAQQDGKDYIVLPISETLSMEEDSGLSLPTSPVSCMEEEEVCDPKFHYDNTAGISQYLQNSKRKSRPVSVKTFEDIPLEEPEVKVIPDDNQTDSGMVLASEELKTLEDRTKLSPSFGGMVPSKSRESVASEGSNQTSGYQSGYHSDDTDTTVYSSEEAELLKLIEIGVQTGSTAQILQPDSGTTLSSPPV", "assay": "VEGFR2 inhibition experiment (HTRF KinEASE-TK kit)", "format": "biochemical", "conditions": "read-out: IC50 for inhibiting VEGFR2", "in_short": "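HTRF KinEASE-TK format: enzyme and compound were preincubated 30 min at room temperature, then substrate and ATP added for 40 min, followed by cryptate antibody/streptavidin-XL665 detection for 45 min. Inhibition was normalised to DMSO and no-enzyme controls; IC50 from a four-parameter fit.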"}, "[1]": {"assay": "Pharmacokinetics and tissue distribution of compounds in rats", "format": "in vivo", "conditions": "male, SD, rat, PO 5 mg/kg; for AUC(0-t): read-out: AUC AUClast; for Cmax: read-out: Peak concentration Cmax; for Kp: read-out: T/P Ratio of AUClast in tissue to plasma; for Tmax: read-out: Time to peak concentration Tmax", "protocol": "By intragastric administration (PO) of BLU-667 (prepared according to Example 5 of WO2017/079140A1) and Compound 17 to male SD rats respectively, the plasma concentrations and the tissue concentrations of BLU-667 and Compound 17 in brains, lungs and thyroid of rats were determined to investigate the pharmacokinetic characteristics. The dosage of administration by PO was 5 mg/kg, and the solvent was 0.5% MC (methylcellulose). With administration by PO, blood samples were collected at different time points (0 h before administration, and 0.25 h, 0.5 h, 1 h, 2 h, 4 h, 6 h, 8 h, and 24 h after administration). The blood samples were anticoagulated with dipotassium edetate, and centrifuged to provide plasma samples, which were stored at −80° C. Rats were sacrificed by exsanguination from abdominal aorta at 0.5 h, 2 h, 8 h, and 24 h after PO administration. Brain, lung and thyroid were collected, washed, and homogenized with normal saline at a certain ratio, to provide tissue samples which were stored at −80° C. The plasma samples and tissue samples were processed with precipitated protein and then analyzed by LC-MS/MS. The pharmacokinetic parameters were computed using WinNonlin 6.3 software and using a non-compartmental model."}, "[2]": {"tested_on": "human medullary thyroid carcinoma TT cells", "assay": "Efficacy test in mice, subcutaneous xenograft tumor of TT cells", "format": "in vivo, Balb/c-nu mouse", "conditions": "5 mg/kg, PO, BID; TT nude mouse xenograft", "protocol": "Experimental purpose: To evaluate the in vivo efficacy of Compound 17 and BLU-667 in a Balb/c-nu mouse model with a subcutaneous xenograft tumor of human medullary thyroid carcinoma TT cells.\nDrug preparation: Compound 17 was dissolved in 0.1 M aqueous solution of H3PO4, and BLU-667 was dissolved in 0.1 M aqueous solution of HOAc, to prepare clear solutions (pH: about 4.0). An aqueous solution of H3PO4 at a pH of about 4.0 was used for the solvent control group. The mode of administration was PO, BID.\nTumor measurement: The tumor diameter was measured with a vernier caliper twice a week. The computing formula of the tumor volume is: V=0.5×a×b^2, where a represents a long diameter of the tumor, and b represents a short diameter of the tumor. Evaluation of tumor growth inhibition rate (TGI (%)) for tumor inhibition efficacy of the compounds: TGI (%)=[(1-(mean tumor volume of a treatment group at the end of drug administration-mean tumor volume of the treatment group at the commencement of drug administration))/(mean tumor volume of a solvent control group at the end of treatment-mean tumor volume of the solvent control group at the commencement of treatment)]×100%.\nStatistical analysis: Prism Graphpad5.0 software was used for statistical analysis based on the relative tumor volume at the end of the experiment. The comparison between multiple groups was analyzed by two-way ANOVA, and p<0.05 was considered as a significant difference.\nExperimental results: In the TT nude mouse xenograft model of human medullary thyroid carcinoma, Compound 17 has a significant […] anti-tumor effect at a dose of 5 mg/kg. […] Relative tumor growth rate T/C (%)=TRTV/CRTV×100%, where TRTV is the mean relative tumor volume of the test compound group, CRTV is the relative tumor volume of the solvent control group; and the relative tumor volume RTV=Vt/V0, where V0 is the mean tumor volume at the commencement of the administration, and Vt is the mean tumor volume measured on day t after the administration."}}, "note": "Where two headings read alike, the source gives them in different places."}
{"smiles": "Cc1cc(Nc2cc(C)[nH]n2)nc(-c2ccc(N3CC4CC(C3)N4Cc3ccc(-n4cc(F)cn4)nc3)nc2)n1", "note": "[Compound 17, 2-(6-(6-((6-(4-fluoro-1H-pyrazol-1-yl)pyridin-3-yl)methyl)-3,6-diazabicyclo[3.1.1]heptan-3-yl)pyridin-3-yl)-6-methyl-N-(5-methyl-1H-pyrazol-3-yl)pyrimidin-4-amine]", "values": [{"measurement": "IC50", "setting": "RET-WT", "result": "1.32 ± 0.31", "unit": "nM"}, {"measurement": "IC50", "setting": "VEGFR2", "result": "0.063 ± 0.0118", "unit": "µM"}, {"measurement": "AUC(0-t)", "setting": "[1]; brain", "result": 1010, "unit": "ng·h/mL"}, {"measurement": "Cmax", "setting": "[1]; brain", "result": 153, "unit": "ng/mL"}, {"measurement": "Kp", "setting": "[1]; brain", "result": 0.15}, {"measurement": "Tmax", "setting": "[1]; brain", "result": 2, "unit": "h"}, {"measurement": "AUC(0-t)", "setting": "[1]; lung", "result": 79600, "unit": "ng·h/mL"}, {"measurement": "Cmax", "setting": "[1]; lung", "result": 9620, "unit": "ng/mL"}, {"measurement": "Kp", "setting": "[1]; lung", "result": 11.7}, {"measurement": "Tmax", "setting": "[1]; lung", "result": 2, "unit": "h"}, {"measurement": "AUC(0-t)", "setting": "[1]; plasma", "result": 6790, "unit": "ng·h/mL"}, {"measurement": "Cmax", "setting": "[1]; plasma", "result": 772, "unit": "ng/mL"}, {"measurement": "Kp", "setting": "[1]; plasma", "result": 1}, {"measurement": "Tmax", "setting": "[1]; plasma", "result": 2, "unit": "h"}, {"measurement": "AUC(0-t)", "setting": "[1]; thyroid", "result": 11400, "unit": "ng·h/mL"}, {"measurement": "Cmax", "setting": "[1]; thyroid", "result": 1870, "unit": "ng/mL"}, {"measurement": "Kp", "setting": "[1]; thyroid", "result": 1.68}, {"measurement": "Tmax", "setting": "[1]; thyroid", "result": 8.49, "unit": "h"}, {"measurement": "Relative tumor growth rate T/C", "setting": "[2]", "result": 17.44, "unit": "%"}, {"measurement": "Tumor growth inhibition rate TGI", "setting": "[2]", "result": 131.36, "unit": "%"}]}
